In patent US10723699B2 (Hyundai Pharm Co., Ltd., priority 2015, dated 2020):

Experiments:
[1] = molecular target: T1, G protein-coupled receptor 119 (GPR-119) (Mesocricetus auratus, UniProt A0A1U8CD06); test: cAMP activity in HIT-T15 cells (cAMP dynamic kit, FRET); format: cell-based, hamster; conditions: 1 hour at 37° C., six concentrations 0.0032 to 10 μM, read-out: EC50
T1 construct: hamster-derived β-cells containing G protein-coupled receptor 119 (GPR-119), HIT-T15 cells; host or cells: HIT-T15 (hamster pancreatic β-cells)
T1 sequence (A0A1U8CD06 1-334): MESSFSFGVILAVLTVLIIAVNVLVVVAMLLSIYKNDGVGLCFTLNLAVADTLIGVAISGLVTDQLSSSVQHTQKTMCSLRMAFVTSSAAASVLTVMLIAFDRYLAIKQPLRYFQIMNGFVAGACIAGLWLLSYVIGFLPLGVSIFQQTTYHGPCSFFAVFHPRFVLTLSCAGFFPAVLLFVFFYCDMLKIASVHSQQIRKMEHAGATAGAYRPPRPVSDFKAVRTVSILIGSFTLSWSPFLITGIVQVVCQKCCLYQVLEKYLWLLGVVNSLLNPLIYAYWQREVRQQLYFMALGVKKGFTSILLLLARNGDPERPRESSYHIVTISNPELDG
How it was run: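 Hamster HIT-T15 cells (60,000/well) were treated next day with compound at six concentrations, 0.0032–10 μM, for 1 h at 37° C. Cells were then lysed and cAMP measured by competitive HTRF immunoassay (D2-cAMP, cryptate anti-cAMP). Activity was derived as the change in FRET signal relative to DMSO.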

NCI-H716 cells = test: Promotion of glucagon-like peptide-1 (GLP-1) secretion (ELISA); format: cell-based, human; conditions: 1, 10, 30 μM
Description: To evaluate an effect of the cyclohexene derivative according to the present invention on promotion of glucagon-like peptide-1 (GLP-1) secretion, experiments were carried out, as follows.
NCI-H716 cells that were human enterocytes were plated on 12 wells at 1×10^6 cells per well. After 48 hours, the cells were starved in serum-free media for 2 hours, and treated with a varying concentration of siptagliptin that was a dipeptidyl peptidase-IV (DPP-IV) inhibitor, and the compounds of Comparative Example 1 (1, 10, 30 μM), Comparative Example 5 (10 μM), Example 48 (1, 10, 30 μM), and Example 291 (1, 10, 30 μM). After an hour, supernatants are recovered to determine an amount of the secreted GLP-1 peptide. The GLP-1 measurement was performed using an enzyme-linked immunosorbant assay (ELISA; Millipore, EGLP-35K), and the amount of the secreted GLP-1 peptide was indicated by the unit “pM”.

[2] = tested on: diet-induced obesity (DIO) C57BL/6J mice; test: OGTT in diet-induced obesity (DIO) mice at the end of 4-week administration; format: in vivo; conditions: glucose 4 g/kg 30 minutes later
Description: To simultaneously evaluate both the weight-loss and hypoglycemic effects of the cyclohexene derivative according to the present invention, experiments were carried out, as follows.
Specifically, male C57BL/6J mice (approximately 4 weeks old) in a diet-induced obesity model were fed with a high-fat diet (Lab. Diet Co.) for approximately 12 weeks to induce high-fat diet-induced obesity (DIO). The mice undergoing the high-fat diet were randomly selected, and divided into groups (n=8) for respective administrations.
The weights of the DIO mice were measured twice a week during a period of administration of 4 weeks to record a change in the weights. At the end of the 4-week period of administration, a hypoglycemic effect was evaluated using an oral glucose tolerance test (OGTT), as follows.
Specifically, the compound (+)-(4-(4-((1-(5-ethylpyrimidin-2-yl)piperidin-4-yl)methoxy)phenyl)cyclohex-3-enyl)((R)-2-(hydroxymethyl)pyrrolidin-1-yl)methanone or (−)-(4-(4-((1-(5-ethylpyrimidin-2-yl)piperidin-4-yl)methoxy)phenyl)cyclohex-3-enyl)((R)-2-(hydroxymethyl)pyrrolidin-1-yl)methanone prepared in Example 290 or 291 was orally administered at a dose of 10 to 20 mg/kg. […] A blood glucose level was determined using an Accu-Chek Active Strip (Roche diagnostic Co.). […]

- EC50 [1]: 32 nM
Compound: CCc1cnc(N2CCC(COc3ccc(C4=CCC(C(=O)N5CCC[C@@H]5CO)CC4)cc3)CC2)nc1 (single isomer, unassigned; (-)) [Example 291]
- GLP-1 secretion relative to the untreated group (NCI-H716 cells): approximately 1.8 times
- % AUC (hypoglycemic level) ([2]; 10 mg/kg oral): 16.2 % AUC
- % AUC (hypoglycemic level) ([2]; 20 mg/kg oral): 17.6 % AUC
